# Test results reported in US12145944B2, “Imidazopyrimidines as EED inhibitors and the use thereof” (THE REGENTS OF THE UNIVERSITY OF MICHIGAN, priority 2019, dated 2024).
# pIC50: −log10 of the molar value. Where two headings read alike, the source gives them in different places.
# Columns and labels:
# [1] = test system: KARPAS422 human B cell lymphoma cell; assay: Cell proliferation, KARPAS422, 7 day treatment (WST-8); type: cell-based; conditions: Homo sapiens, KARPAS-422, 168 h; for pIC50: 7 day treatment, read-out: Karpas Cell line
# Outline: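 Read-out was WST-8 absorbance at 450 nm after 1-4 h with reagent, taken after 7-day compound treatment (serial dilutions, 37 °C, 5% CO2) of 2 000-3 000 KARPAS422 cells per well. IC50 fitted by nonlinear regression on DMSO-normalized values.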
# [2] = test system: Pfeiffer cell line; assay: Anti-proliferative activity, Pfeiffer cell line, 7 day treatment; type: cell-based; conditions: Homo sapiens, 168 h; for pIC50: 7 day treatment, read-out: Pfeiffer Cell line
# Outline: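 Cells seeded at 2 000-3 000 per well were treated with serially diluted compounds for 7 days at 37° C, 5% CO2. Growth was measured by WST-8 assay read at 450 nm after 1-4 h reagent incubation. Readings were normalized to DMSO-treated cells and IC50 values derived by nonlinear regression.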
# [3] = anti-proliferative IC50, Karpas 422 cell line
# [4] = anti-proliferative IC50, Pfeiffer cell line
# [5] = anti-proliferative IC50 class, Karpas 422 cell line
# [6] = anti-proliferative IC50 class, Pfeiffer cell line
"pIC50 [1, 3]","pIC50 [2, 4]","pIC50 [1, 5]","pIC50 [2, 6]",Compound,further results
8.57,9.89,,,"O=C1c2ncn3c(NCc4c(F)ccc5c4CCO5)ncc(c23)-c2cnc(C(F)(F)F)cc2CN1C1CC(F)(F)C1 [compound 85, 4-(3,3-difluorocyclobutyl)-12-(((5-fluoro-2,3-dihydrobenzofuran-4-yl)methyl)amino)-7-(trifluoromethyl)-4,5-dihydro-3H-2,4,8,11,12a-pentaazabenzo[4,5]cycloocta[1,2,3-cd]inden-3-one]",
7.05,8.00,,,"O=C1NCc2ccc(F)cc2-c2cnc(NCc3c(F)ccc4c3CCO4)n3cnc1c23 [compound 23, 8-fluoro-12-(((5-fluoro-2,3-dihydrobenzofuran-4-yl)methyl)amino)-4,5-dihydro-3H-2,4,11,12a-tetraazabenzo[4,5]cycloocta[1,2,3-cd]inden-3-one]",
,,> 8.00,> 8.00,"CC(C)N1Cc2cc(C(F)F)ncc2-c2cnc(NCc3c(F)ccc4c3CCO4)n3cnc(c23)C1=O [E 11, 7-(difluoromethyl)-12-(((5-fluoro-2,3-dihydrobenzofuran-4-yl)methyl)amino)-4-isopropyl-4,5-dihydro-3H-2,4,8,11,12a-pentaazabenzo[4,5]cycloocta[1,2,3-cd]inden-3-one]",
,,> 8.00,> 8.00,"O=C1c2ncn3c(NCc4c(F)ccc5c4CCO5)ncc(c23)-c2ccc(C3CC3)nc2CN1CC(F)(F)F [E 14, 7-cyclopropyl-12-(((5-fluoro-2,3-dihydrobenzofuran-4-yl)methyl)amino)-4-(2,2,2-trifluoroethyl)-4,5-dihydro-3H-2,4,6,11,12a-pentaazabenzo[4,5]cycloocta[1,2,3-cd]inden-3-one]",
8.34,8.91,,,"O=C1OCc2c(F)cccc2-c2cnc(NCc3c(F)ccc4c3CCO4)n3cnc1c23 [compound 11, 6-fluoro-12-(((5-fluoro-2,3-dihydrobenzofuran-4-yl)methyl)amino)-3H,5H-4-oxa-2,11,12a-triazabenzo[4,5]cycloocta[1,2,3-cd]inden-3-one]",
,,> 8.00,> 8.00,"CC(C)c1ccc2c(n1)CN(CC(F)F)C(=O)c1ncn3c(NCc4c(F)ccc5c4CCO5)ncc-2c13 [E 47, 4-(2,2-difluoroethyl)-12-(((5-fluoro-2,3-dihydrobenzofuran-4-yl)methyl)amino)-7-isopropyl-4,5-dihydro-3H-2,4,6,11,12a-pentaazabenzo[4,5]cycloocta[1,2,3-cd]inden-3-one]",
,,> 8.00,> 8.00,"O=C1c2ncn3c(NCc4c(F)ccc5c4CCO5)ncc(c23)-c2ccc(C3COCCO3)nc2CN1CC(F)(F)F (centres unmarked) [E 48, 7-(1,4-dioxan-2-yl)-12-(((5-fluoro-2,3-dihydrobenzofuran-4-yl)methyl)amino)-4-(2,2,2-trifluoroethyl)-4,5-dihydro-3H-2,4,6,11,12a-pentaazabenzo[4,5]cycloocta[1,2,3-cd]inden-3-one]",
< 7.00,< 7.00,,,"Cc1cccc(F)c1CNc1ncc2c3c(ncn13)COCc1ncccc1-2 [compound 1, N-(2-fluoro-6-methylbenzyl)-3H,5H-4-oxa-2,6,11,12a-tetraazabenzo[4,5]cycloocta[1,2,3-cd]inden-12-amine]",
7.67,10.25,,,"O=S1(=O)CCc2cc(F)ccc2-c2cnc(NCc3c(F)ccc4c3CCO4)n3cnc1c23 [compound 96, 7-fluoro-12-(((5-fluoro-2,3-dihydrobenzofuran-4-yl)methyl)amino)-4,5-dihydro-3-thia-2,11,12a-triazabenzo[4,5]cycloocta[1,2,3-cd]indene 3,3-dioxide]",
,,> 8.00,> 8.00,"O=C1c2ncn3c(NCc4c(F)ccc5c4CCO5)ncc(c23)-c2ccc(C3CCOCC3)nc2CN1CC(F)(F)F [E 45, 12-(((5-fluoro-2,3-dihydrobenzofuran-4-yl)methyl)amino)-7-(tetrahydro-2H-pyran-4-yl)-4-(2,2,2-trifluoroethyl)-4,5-dihydro-3H-2,4,6,11,12a-pentaazabenzo[4,5]cycloocta[1,2,3-cd]inden-3-one]",

# Further lines, the molecule ahead of its results:
Compound,"pIC50 [1, 3]","pIC50 [2, 4]","pIC50 [1, 5]","pIC50 [2, 6]",further results
"O=C1OCc2ncccc2-c2cnc(NCc3c(F)ccc4occc34)n3cnc1c23 [compound 10, 12-(((5-fluorobenzofuran-4-yl)methyl)amino)-3H,5H-4-oxa-2,6,11,12a-tetraazabenzo[4,5]cycloocta[1,2,3-cd]inden-3-one]",7.80,8.53,,,
"O=C1OCc2cc(C(F)(F)F)ccc2-c2cnc(NCc3c(F)ccc4c3CCO4)n3cnc1c23 [compound 8, 12-(((5-fluoro-2,3-dihydrobenzofuran-4-yl)methyl)amino)-7-(trifluoromethyl)-3H,5H-4-oxa-2,11,12a-triazabenzo[4,5]cycloocta[1,2,3-cd]inden-3-one]",8.54,9.24,,,
"Cc1ccc2c(n1)Cn1c(C)cnc1-c1ncn3c(NCc4c(F)ccc5c4CCO5)ncc-2c13 [E 18, N-((5-fluoro-2,3-dihydrobenzofuran-4-yl)methyl)-5,8-dimethyl-6H-2,3,5a,7,12,13a-hexaazabenzo[4,5]cyclopenta[7,8]cycloocta[1,2,3-cd]inden-13-amine]",,,7.00 to 8.00,> 8.00,
"O=C1NCc2ncccc2-c2cnc(NCc3c(F)ccc4c3CCO4)n3cnc1c23 [Cpd. No. 16, 12-(((5-fluoro-2,3-dihydrobenzofuran-4-yl)methyl)amino)-4,5-dihydro-3H-2,4,6,11,12a-pentaazabenzo[4,5]cycloocta[1,2,3-cd]inden-3-one]",7.83,8.47,,,
"Cc1nc2c(s1)-c1cnc(NCc3c(F)ccc4c3CCO4)n3cnc(c13)C(=O)N(C1CC1)C2 [compound 86, 4-cyclopropyl-11-(((5-fluoro-2,3-dihydrobenzofuran-4-yl)methyl)amino)-7-methyl-4,5-dihydro-3H-8-thia-2,4,6,10,11a-pentaazacyclopenta[4,5]cycloocta[1,2,3-cd]inden-3-one]",8.64,10.68,,,
"Cc1ncccc1-c1cnc(NCc2c(F)ccc3c2CCO3)n2cnc(S(C)(=O)=O)c12 [compound 101, N-((5-fluoro-2,3-dihydrobenzofuran-4-yl)methyl)-8-(2-methylpyridin-3-yl)-1-(methylsulfonyl)imidazo[1,5-c]pyrimidin-5-amine]",,,,,"IC50 ([1]; read-out: Karpas Cell line (nM)): 5.59 nM; IC50 ([2]; Pfeiffer, read-out: Pfeiffer Cell line (nM)): 1.76 nM"
"O=C1c2ncn3c(NCc4c(F)ccc5c4CCO5)ncc(c23)-c2nc(C(F)(F)F)ccc2CN1CC1COCCO1 (centres unmarked) [compound 40, 4-((1,4-dioxan-2-yl)methyl)-12-(((5-fluoro-2,3-dihydrobenzofuran-4-yl)methyl)amino)-8-(trifluoromethyl)-4,5-dihydro-3H-2,4,9,11,12a-pentaazabenzo[4,5]cycloocta[1,2,3-cd]inden-3-one]",< 7.00,7.41,,,
"O=C1c2ncn3c(NCc4c(F)ccc5c4CCO5)ncc(c23)-c2ccc(C(F)(F)F)nc2CN1C1CC1 [compound 41, 4-cyclopropyl-12-(((5-fluoro-2,3-dihydrobenzofuran-4-yl)methyl)amino)-7-(trifluoromethyl)-4,5-dihydro-3H-2,4,6,11,12a-pentaazabenzo[4,5]cycloocta[1,2,3-cd]inden-3-one]",8.77,8.99,,,
"O=C1c2ncn3c(NCc4c(F)ccc5c4CCO5)ncc(c23)-c2cnc(C(F)(F)F)cc2CN1C1CCC1 [E 5, 4-cyclobutyl-12-(((5-fluoro-2,3-dihydrobenzofuran-4-yl)methyl)amino)-7-(trifluoromethyl)-4,5-dihydro-3H-2,4,8,11,12a-pentaazabenzo[4,5]cycloocta[1,2,3-cd]inden-3-one]",,,> 8.00,> 8.00,
